Key:
[1] = system: patients with Wilson's Disease; assay: Serum NCC by copper speciation assay, randomized open-label clinical study (Example 3); type: in vivo, human
Method: 1.95 mL of rhodium internal standard solution containing 1% TMAH/1% EDTA was combined with 50 μL of human serum in a 15 mL polypropylene tube, capped and rotary mixed for at least 30 minutes. The processed sample was then analysed by ICP-MS on an Agilent 7900x inductively coupled plasma mass spectrometer.
The samples were defrosted and equilibrated to room temperature prior to use, and vortex mixed for approximately 5 seconds. 80 μL of 50 mM Tris-HCl (pH 7.4) buffer solution was combined with 20 μL of the clinical sample, blank or reference standard in a 0.5 mL Eppendorf tube (protein low bind). The diluted sample (100 μL) was transferred to a 0.3 mL polypropylene LC vial and sealed with a screw cap. An aliquot (50 μL) of each processed sample was then analysed by LC-ICP-MS on an Agilent 8900x inductively coupled plasma mass spectrometer.
Speciation analysis of Cu-containing species in the serum samples was performed by an anion exchange high performance liquid chromatography (AE HPLC) column (GE Healthcare MonoQ 5/50 GL, stationary phase (10 μm; 5×50 mm)) with an ammonium acetate gradient (0-250 mM) for 20 min. A flow rate of 1.0 mL/min was used. The chromatographic separation was performed at 25° C. Detection of the eluting Cu species was achieved using a collision/reaction cell Agilent Technologies 8900x ICP-MS spectrometer. The isotopes 63Cu and 65Cu were monitored in time resolved mode analysis using an integration time of 0.3 sec. 63Cu is the most abundant isotope and therefore this isotope was used to quantify copper by LC-ICP-MS.
Efficacy was assessed and treatments were monitored primarily using total copper analysis and a copper speciation assay as outlined in Examples 1 and 2 to determine serum NCC levels.
Eligible patients were clinically stable with their standard of-care D penicillamine chelation therapy for at least 1 year. These patients entered a 12-Week Penicillamine Baseline Period (from study visits on Day 1 to Week 12). During this time, all patients continued their current D penicillamine regimen under study conditions. At the end of the Penicillamine Baseline Period, patients who fulfilled the protocol definition of being adequately controlled and tolerating D penicillamine were randomized in a 1:1 ratio to receive either TETA 4HCl or to continue to receive D penicillamine during a 24-Week Post-Randomization Period (from study visits Week 12 to Week 36).
The primary efficacy endpoint was the serum NCC concentration (in μg/L) at Week 36. Serum NCC concentrations were determined using a copper speciation serum NCC assay using the methodology outlined in Examples 1 and 2. The primary efficacy analysis utilized the serum NCC values from all study visits that were analyzed using a restricted maximum likelihood based general linear model for correlated data. The correlation due to repeated measures was modelled by specifying the variance covariance matrix.

[2] = system: patients with Wilson's Disease; assay: 24-hour urinary copper excretion (UCE), clinical study of Example 3; type: in vivo, human; conditions: ITT
Method: The number and the proportion of patients with a serum NCC value that matched the threshold (eg, serum NCC≤50 μg/L) were presented along with the 95% confidence interval of the proportion by visit and treatment arm. The proportions in the 2 arms were compared using Fisher's exact test. The same approach was applied on 24-hour UCE.

[3] = system: patients with Wilson's Disease; assay: Clinical Global Impression of Change (CGIC) rating scale, clinical study of Example 3; type: in vivo, human; conditions: 7-point scale, ITT
Excerpt: The CGIC rating scale, a 7-point ordinal score, was summarized by visit and treatment arm, and compared between arms using a stratified Cochran-Mantel-Haenszel test. The UWDRS, a continuous measure, was summarized by visit and treatment arm with descriptive statistics for absolute values and the changes from baseline.

[4] = system: patients with Wilson's Disease; assay: Baseline ALT, clinical study of Example 3; conditions: baseline (Penicillamine Baseline Period), by treatment arm
Excerpt: For change from baseline in laboratory measurements, “baseline” was defined as the last non-missing value during the Penicillamine Baseline Period, including unscheduled values.

[5] = Day 1, 12-Week Penicillamine Baseline Period (all patients on D-penicillamine), ITT population, by arm
[6] = Week 4, Penicillamine Baseline Period (all patients on D-penicillamine), ITT
[7] = Week 8, Penicillamine Baseline Period (all patients on D-penicillamine), ITT
[8] = Week 12 (randomization), end of Penicillamine Baseline Period, ITT
[9] = Week 16, Post-Randomization Period, ITT
[10] = Week 20, Post-Randomization Period, ITT
[11] = Week 24, Post-Randomization Period, ITT
[12] = Week 28, Post-Randomization Period, ITT
[13] = Week 32, Post-Randomization Period, ITT
[14] = Week 36, Post-Randomization Period, ITT
[15] = Day 1, 12-Week Penicillamine Baseline Period (all patients on D-penicillamine), by arm
[16] = Week 4, Penicillamine Baseline Period (all patients on D-penicillamine)
[17] = Week 12 (randomization), end of Penicillamine Baseline Period
[18] = Week 16, 24-Week Post-Baseline Period
[19] = Week 24, 24-Week Post-Baseline Period
[20] = Week 36, 24-Week Post-Baseline Period
[21] = Week 12, Penicillamine Baseline Period
[22] = Week 16, Post-Randomization Period
[23] = Week 24, Post-Randomization Period
[24] = Week 36, Post-Randomization Period

## Cl.Cl.Cl.Cl.NCCNCCNCCN [TETA 4HCl, trientine tetrahydrochloride]
[1]; [5]
  serum NCC value, mean: 60.7 µg/L
  serum NCC value, median: 58.2 µg/L
[1]; [6]
  serum NCC value, mean: 57.6 µg/L
  serum NCC value, median: 58.5 µg/L
[1]; [7]
  serum NCC value, mean: 70.0 µg/L
  serum NCC value, median: 61.5 µg/L
[1]; [8]
  serum NCC value, mean: 68.5 µg/L
  serum NCC value, median: 61.1 µg/L
[1]; Week 16, 24-Week Post-Randomization Period, ITT
  serum NCC value, mean: 78.0 µg/L
[1]; [9]
  serum NCC change from baseline, mean: 9.4 µg/L
  serum NCC change from baseline, median: 9.2 µg/L
  serum NCC value, median: 69.6 µg/L
[1]; [10]
  serum NCC change from baseline, mean: 8.2 µg/L
  serum NCC change from baseline, median: 4.1 µg/L
  serum NCC value, mean: 76.8 µg/L
  serum NCC value, median: 60.8 µg/L
[1]; [11]
  serum NCC change from baseline, mean: -0.4 µg/L
  serum NCC change from baseline, median: 3.0 µg/L
  serum NCC value, mean: 60.3 µg/L
  serum NCC value, median: 57.0 µg/L
[1]; [12]
  serum NCC change from baseline, mean: -0.8 µg/L
  serum NCC change from baseline, median: 0.0 µg/L
  serum NCC value, mean: 69.5 µg/L
  serum NCC value, median: 62.4 µg/L
[1]; [13]
  serum NCC change from baseline, mean: -4.6 µg/L
  serum NCC change from baseline, median: 0.7 µg/L
  serum NCC value, mean: 64.0 µg/L
  serum NCC value, median: 60.0 µg/L
[1]; Week 36 (primary efficacy endpoint), Post-Randomization Period, ITT
  serum NCC value, mean: 57.6 µg/L
[1]; [14]
  serum NCC change from baseline, mean: -11.0 µg/L
  serum NCC change from baseline, median: -6.9 µg/L
  serum NCC value, median: 51.1 µg/L
[1]; copper speciation assay, Table 4
  serum NCC levels, comparison between arms: very similar
[2]; [15]
  24-hour UCE value, mean: 550.8 μg/24 hours
  24-hour UCE value, median: 546.6 μg/24 hours
[2]; [16]
  24-hour UCE value, mean: 545.4 μg/24 hours
  24-hour UCE value, median: 436.1 μg/24 hours
[2]; [17]
  24-hour UCE value, mean: 535.1 μg/24 hours
  24-hour UCE value, median: 590.4 μg/24 hours
[2]; [18]
  24-hour UCE change from baseline, mean: −223 μg/24 hours
  24-hour UCE change from baseline, median: −221 μg/24 hours
  24-hour UCE value, mean: 316.4 μg/24 hours
  24-hour UCE value, median: 265.6 μg/24 hours
[2]; [19]
  24-hour UCE change from baseline, mean: −247 μg/24 hours
  24-hour UCE change from baseline, median: −199 μg/24 hours
  24-hour UCE value, mean: 295.7 μg/24 hours
  24-hour UCE value, median: 257.8 μg/24 hours
[2]; [20]
  24-hour UCE change from baseline, mean: −258 μg/24 hours
  24-hour UCE change from baseline, median: −231 μg/24 hours
  24-hour UCE value, mean: 289.4 μg/24 hours
  24-hour UCE value, median: 234.8 μg/24 hours
[3]; Week 4, Penicillamine Baseline Period (all patients on D-penicillamine), 4 = no change
  Clinical Global Impression of Change Scale, mean: 4.0
[3]; [16]
  Clinical Global Impression of Change Scale, median: 4.0
[3]; [21]
  Clinical Global Impression of Change Scale, mean: 4.0
  Clinical Global Impression of Change Scale, median: 4.0
[3]; [22]
  Clinical Global Impression of Change Scale, mean: 4
  Clinical Global Impression of Change Scale, median: 4.0
[3]; [23]
  Clinical Global Impression of Change Scale, mean: 4.0
  Clinical Global Impression of Change Scale, median: 4.0
[3]; [24]
  Clinical Global Impression of Change Scale, mean: 3.9
  Clinical Global Impression of Change Scale, median: 4.0
[4]
  ALT, mean baseline: 34.7 U/L

Source: US20240382435A1, “NON-CERULOPLASMIN BOUND COPPER LEVEL MONITORING” (ORPHALAN S.A., priority 2021, published 2024)
